{"source": "paper PMC5290327", "about": "“SC83288 is a clinical development candidate for the treatment of severe malaria” (Nature Communications, 2017)", "experiment_in_all_cases": "KINOMEscan", "type_in_all_cases": "binding", "conditions_in_all_cases": "read-out: Remaining enzyme activity", "key": {"CDC2L2": {"target": "T1, CDC2L2 (Homo sapiens, UniProt Q9UQ88)", "T1 construct": "purchased Ambit (DiscoverX) KINOMEscan; Cerep", "procedure,_shortened": "(§1)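 Read-out: qPCR quantitation of DNA-tagged kinase eluted from affinity beads after competition with SC81458 (10 μM final). Kinases were expressed either as T7 phage fusions in E. coli or in HEK-293 cells.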"}, "FLT3(D835H)": {"target": "T2, FLT3(D835H) (Homo sapiens, UniProt P36888, D835H)", "T2 construct": "purchased Ambit (DiscoverX) KINOMEscan; Cerep", "procedure,_shortened": "as §1"}, "OSR1": {"target": "T3, OSR1 (Homo sapiens, UniProt O95747)", "T3 construct": "purchased Ambit (DiscoverX) KINOMEscan; Cerep", "procedure,_shortened": "as §1"}, "FLT3": {"target": "T4, FLT3 (Homo sapiens, UniProt P36888)", "T4 construct": "purchased Ambit (DiscoverX) KINOMEscan; Cerep", "procedure,_shortened": "as §1"}, "CDK3": {"target": "T5, CDK3 (Homo sapiens, UniProt Q00526)", "T5 construct": "purchased Ambit (DiscoverX) KINOMEscan; Cerep", "procedure,_shortened": "as §1"}, "KIT(V559D, T670I)": {"target": "T6, KIT(V559D, T670I) (Homo sapiens, UniProt P10721, T670I/V559D)", "T6 construct": "purchased Ambit (DiscoverX) KINOMEscan; Cerep", "T6 sequence (P10721 26-976 V559D/T670I)": "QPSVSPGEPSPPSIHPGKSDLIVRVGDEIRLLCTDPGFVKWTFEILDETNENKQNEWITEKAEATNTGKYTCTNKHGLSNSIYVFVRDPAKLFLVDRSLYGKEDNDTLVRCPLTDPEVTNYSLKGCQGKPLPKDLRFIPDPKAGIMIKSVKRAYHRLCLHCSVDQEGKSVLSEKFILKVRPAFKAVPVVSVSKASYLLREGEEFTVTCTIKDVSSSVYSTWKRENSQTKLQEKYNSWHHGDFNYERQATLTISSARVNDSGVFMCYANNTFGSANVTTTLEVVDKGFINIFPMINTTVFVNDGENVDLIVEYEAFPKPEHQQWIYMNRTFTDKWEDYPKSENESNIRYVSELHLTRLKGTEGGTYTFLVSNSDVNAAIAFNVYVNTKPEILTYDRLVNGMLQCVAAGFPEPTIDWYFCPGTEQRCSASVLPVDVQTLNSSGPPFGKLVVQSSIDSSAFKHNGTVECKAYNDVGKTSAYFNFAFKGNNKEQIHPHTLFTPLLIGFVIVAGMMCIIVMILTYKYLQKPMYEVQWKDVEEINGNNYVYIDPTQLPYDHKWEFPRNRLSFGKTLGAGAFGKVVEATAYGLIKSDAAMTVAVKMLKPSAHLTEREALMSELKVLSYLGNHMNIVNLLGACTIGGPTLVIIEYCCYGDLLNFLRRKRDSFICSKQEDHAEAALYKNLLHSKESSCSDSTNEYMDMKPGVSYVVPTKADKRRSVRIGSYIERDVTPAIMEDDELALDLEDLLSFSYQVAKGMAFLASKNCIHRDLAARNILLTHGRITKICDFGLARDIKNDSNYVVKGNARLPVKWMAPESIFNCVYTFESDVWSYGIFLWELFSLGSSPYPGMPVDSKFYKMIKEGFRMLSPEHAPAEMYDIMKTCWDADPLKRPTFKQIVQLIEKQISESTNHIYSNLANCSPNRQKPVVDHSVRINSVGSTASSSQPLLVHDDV", "procedure,_shortened": "as §1"}, "MAP4K5": {"target": "T7, MAP4K5 (Homo sapiens, UniProt Q9Y4K4)", "T7 construct": "purchased Ambit (DiscoverX) KINOMEscan; Cerep", "procedure,_shortened": "as §1"}, "EPHB2": {"target": "T8, EPHB2 (Homo sapiens, UniProt P29323)", "T8 construct": "purchased Ambit (DiscoverX) KINOMEscan; Cerep", "T8 sequence (P29323 19-1055)": "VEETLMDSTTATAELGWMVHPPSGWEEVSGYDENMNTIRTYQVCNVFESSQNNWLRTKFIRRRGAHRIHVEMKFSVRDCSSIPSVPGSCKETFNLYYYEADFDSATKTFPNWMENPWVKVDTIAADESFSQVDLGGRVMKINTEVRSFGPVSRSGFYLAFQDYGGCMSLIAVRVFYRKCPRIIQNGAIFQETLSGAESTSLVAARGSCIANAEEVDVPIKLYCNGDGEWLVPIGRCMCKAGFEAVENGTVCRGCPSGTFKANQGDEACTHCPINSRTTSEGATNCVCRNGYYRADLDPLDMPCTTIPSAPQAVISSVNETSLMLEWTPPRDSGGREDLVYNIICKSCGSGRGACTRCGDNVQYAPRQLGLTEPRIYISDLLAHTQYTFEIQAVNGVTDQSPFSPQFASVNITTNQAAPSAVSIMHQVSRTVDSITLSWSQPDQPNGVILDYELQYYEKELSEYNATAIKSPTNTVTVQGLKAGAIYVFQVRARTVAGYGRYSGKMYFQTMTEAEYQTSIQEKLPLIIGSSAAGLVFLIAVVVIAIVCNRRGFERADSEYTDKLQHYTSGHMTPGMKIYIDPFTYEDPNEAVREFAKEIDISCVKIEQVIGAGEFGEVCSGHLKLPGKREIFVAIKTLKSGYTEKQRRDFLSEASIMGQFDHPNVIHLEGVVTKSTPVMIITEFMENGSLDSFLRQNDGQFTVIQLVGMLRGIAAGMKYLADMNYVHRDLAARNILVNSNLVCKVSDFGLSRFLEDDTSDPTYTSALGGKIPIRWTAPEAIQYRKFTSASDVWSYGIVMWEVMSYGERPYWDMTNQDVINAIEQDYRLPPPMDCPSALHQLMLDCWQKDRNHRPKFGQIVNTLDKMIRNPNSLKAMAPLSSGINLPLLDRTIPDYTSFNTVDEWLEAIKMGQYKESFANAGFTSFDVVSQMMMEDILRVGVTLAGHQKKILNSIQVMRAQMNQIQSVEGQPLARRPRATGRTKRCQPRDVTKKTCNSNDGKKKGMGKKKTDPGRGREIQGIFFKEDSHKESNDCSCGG", "procedure,_shortened": "as §1"}, "MAPKAPK2": {"target": "T9, MAPKAPK2 (Homo sapiens, UniProt P49137)", "T9 construct": "purchased Ambit (DiscoverX) KINOMEscan; Cerep", "procedure,_shortened": "as §1"}, "[1]": {"target": "T10, RPS6KA6(Kin.Dom.2-C-term) (Homo sapiens, UniProt Q9UK32)", "T10 construct": "RPS6KA6(Kin.Dom.2-C-term); purchased Ambit (DiscoverX) KINOMEscan; Cerep", "T10 sequence (Q9UK32 426-683 limits assumed)": "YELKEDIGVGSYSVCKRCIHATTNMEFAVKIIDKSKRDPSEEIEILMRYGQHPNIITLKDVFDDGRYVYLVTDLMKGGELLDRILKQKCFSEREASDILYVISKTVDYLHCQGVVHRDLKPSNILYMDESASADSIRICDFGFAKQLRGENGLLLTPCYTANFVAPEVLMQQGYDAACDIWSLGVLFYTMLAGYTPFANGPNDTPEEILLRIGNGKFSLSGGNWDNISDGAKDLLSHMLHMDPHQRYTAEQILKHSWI", "procedure,_shortened": "as §1"}, "ADCK4": {"target": "T11, ADCK4 (Homo sapiens, UniProt Q96D53)", "T11 construct": "purchased Ambit (DiscoverX) KINOMEscan; Cerep", "procedure,_shortened": "as §1"}, "SRMS": {"target": "T12, SRMS (Homo sapiens, UniProt Q9H3Y6)", "T12 construct": "purchased Ambit (DiscoverX) KINOMEscan; Cerep", "procedure,_shortened": "as §1"}, "MAP3K2": {"target": "T13, MAP3K2 (Homo sapiens, UniProt Q9Y2U5)", "T13 construct": "purchased Ambit (DiscoverX) KINOMEscan; Cerep", "procedure,_shortened": "as §1"}, "CLK4": {"target": "T14, CLK4 (Homo sapiens, UniProt Q9HAZ1)", "T14 construct": "purchased Ambit (DiscoverX) KINOMEscan; Cerep", "procedure,_shortened": "as §1"}, "PKN2": {"target": "T15, PKN2 (Homo sapiens, UniProt Q16513)", "T15 construct": "purchased Ambit (DiscoverX) KINOMEscan; Cerep", "procedure,_shortened": "as §1"}, "ABL1(F317L)": {"target": "T16, ABL1(F317L) (Homo sapiens, UniProt P00519, F317L)", "T16 construct": "purchased Ambit (DiscoverX) KINOMEscan; Cerep", "procedure,_shortened": "as §1"}, "PAK3": {"target": "T17, PAK3 (Homo sapiens, UniProt O75914)", "T17 construct": "purchased Ambit (DiscoverX) KINOMEscan; Cerep", "procedure,_shortened": "as §1"}, "ABL1(M351T)": {"target": "T18, ABL1(M351T) (Homo sapiens, UniProt P00519, M351T)", "T18 construct": "purchased Ambit (DiscoverX) KINOMEscan; Cerep", "procedure,_shortened": "as §1"}, "CDK9": {"target": "T19, CDK9 (Homo sapiens, UniProt P50750)", "T19 construct": "purchased Ambit (DiscoverX) KINOMEscan; Cerep", "procedure,_shortened": "as §1"}, "PIK3CA(E542K)": {"target": "T20, PIK3CA(E542K) (Homo sapiens, UniProt P42336, E542K)", "T20 construct": "purchased Ambit (DiscoverX) KINOMEscan; Cerep", "T20 sequence (P42336 whole entry E542K)": "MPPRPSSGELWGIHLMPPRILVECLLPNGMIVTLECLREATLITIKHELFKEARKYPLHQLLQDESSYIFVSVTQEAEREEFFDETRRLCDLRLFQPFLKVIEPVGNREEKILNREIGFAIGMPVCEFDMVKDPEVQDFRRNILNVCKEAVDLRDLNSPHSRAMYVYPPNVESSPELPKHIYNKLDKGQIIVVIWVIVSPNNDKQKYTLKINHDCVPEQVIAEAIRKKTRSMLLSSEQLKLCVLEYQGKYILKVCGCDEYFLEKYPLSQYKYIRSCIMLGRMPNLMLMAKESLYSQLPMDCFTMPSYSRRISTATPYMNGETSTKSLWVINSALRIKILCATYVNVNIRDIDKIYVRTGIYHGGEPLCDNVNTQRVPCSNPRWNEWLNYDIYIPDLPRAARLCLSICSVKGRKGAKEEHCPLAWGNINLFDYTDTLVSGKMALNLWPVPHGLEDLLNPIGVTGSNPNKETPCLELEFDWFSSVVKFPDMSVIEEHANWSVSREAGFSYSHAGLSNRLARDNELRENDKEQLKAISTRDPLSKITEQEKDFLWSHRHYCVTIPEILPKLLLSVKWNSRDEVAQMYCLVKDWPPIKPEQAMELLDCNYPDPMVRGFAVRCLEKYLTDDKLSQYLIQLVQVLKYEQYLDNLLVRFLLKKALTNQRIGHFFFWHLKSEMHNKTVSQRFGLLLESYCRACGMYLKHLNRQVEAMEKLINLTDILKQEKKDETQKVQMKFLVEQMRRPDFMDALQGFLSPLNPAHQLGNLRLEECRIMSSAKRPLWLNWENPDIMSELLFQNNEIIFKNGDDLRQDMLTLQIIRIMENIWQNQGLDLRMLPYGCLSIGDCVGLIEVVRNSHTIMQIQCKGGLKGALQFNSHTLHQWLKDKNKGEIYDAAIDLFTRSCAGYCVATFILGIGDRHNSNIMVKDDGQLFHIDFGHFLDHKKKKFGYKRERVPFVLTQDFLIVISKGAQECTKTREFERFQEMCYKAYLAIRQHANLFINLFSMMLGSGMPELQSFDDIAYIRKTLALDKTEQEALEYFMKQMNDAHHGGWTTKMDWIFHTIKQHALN", "procedure,_shortened": "as §1"}, "MELK": {"target": "T21, MELK (Homo sapiens, UniProt Q14680)", "T21 construct": "purchased Ambit (DiscoverX) KINOMEscan; Cerep", "procedure,_shortened": "as §1"}, "[2]": {"target": "T22, EGFR(L747-E749del, A750P) (Homo sapiens, UniProt P00533, A750P/DEL747-749)", "T22 construct": "purchased Ambit (DiscoverX) KINOMEscan; Cerep", "T22 sequence (P00533 with tags, fused parts or gaps DEL747-749/A750P limits assumed)": "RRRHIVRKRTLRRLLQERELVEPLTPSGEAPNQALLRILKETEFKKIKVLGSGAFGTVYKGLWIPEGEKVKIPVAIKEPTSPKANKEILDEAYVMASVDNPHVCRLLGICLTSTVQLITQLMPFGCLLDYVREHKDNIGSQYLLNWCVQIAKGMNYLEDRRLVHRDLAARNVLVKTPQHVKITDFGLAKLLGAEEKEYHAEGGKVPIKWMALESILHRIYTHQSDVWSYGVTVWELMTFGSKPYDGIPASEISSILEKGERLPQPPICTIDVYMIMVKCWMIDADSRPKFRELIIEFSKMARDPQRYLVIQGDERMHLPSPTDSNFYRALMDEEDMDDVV", "procedure,_shortened": "as §1"}, "MET(Y1235D)": {"target": "T23, MET(Y1235D) (Homo sapiens, UniProt P08581, Y1235D)", "T23 construct": "purchased Ambit (DiscoverX) KINOMEscan; Cerep", "procedure,_shortened": "as §1"}, "PAK1": {"target": "T24, PAK1 (Homo sapiens, UniProt Q13153)", "T24 construct": "purchased Ambit (DiscoverX) KINOMEscan; Cerep", "procedure,_shortened": "as §1"}, "ERK2": {"target": "T25, ERK2 (Homo sapiens, UniProt P28482)", "T25 construct": "purchased Ambit (DiscoverX) KINOMEscan; Cerep", "procedure,_shortened": "as §1"}, "YSK4": {"target": "T26, YSK4 (Homo sapiens, UniProt Q56UN5)", "T26 construct": "purchased Ambit (DiscoverX) KINOMEscan; Cerep", "procedure,_shortened": "as §1"}, "MET(M1250T)": {"target": "T27, MET(M1250T) (Homo sapiens, UniProt P08581, M1250T)", "T27 construct": "purchased Ambit (DiscoverX) KINOMEscan; Cerep", "T27 sequence (P08581 25-1390 M1250T)": "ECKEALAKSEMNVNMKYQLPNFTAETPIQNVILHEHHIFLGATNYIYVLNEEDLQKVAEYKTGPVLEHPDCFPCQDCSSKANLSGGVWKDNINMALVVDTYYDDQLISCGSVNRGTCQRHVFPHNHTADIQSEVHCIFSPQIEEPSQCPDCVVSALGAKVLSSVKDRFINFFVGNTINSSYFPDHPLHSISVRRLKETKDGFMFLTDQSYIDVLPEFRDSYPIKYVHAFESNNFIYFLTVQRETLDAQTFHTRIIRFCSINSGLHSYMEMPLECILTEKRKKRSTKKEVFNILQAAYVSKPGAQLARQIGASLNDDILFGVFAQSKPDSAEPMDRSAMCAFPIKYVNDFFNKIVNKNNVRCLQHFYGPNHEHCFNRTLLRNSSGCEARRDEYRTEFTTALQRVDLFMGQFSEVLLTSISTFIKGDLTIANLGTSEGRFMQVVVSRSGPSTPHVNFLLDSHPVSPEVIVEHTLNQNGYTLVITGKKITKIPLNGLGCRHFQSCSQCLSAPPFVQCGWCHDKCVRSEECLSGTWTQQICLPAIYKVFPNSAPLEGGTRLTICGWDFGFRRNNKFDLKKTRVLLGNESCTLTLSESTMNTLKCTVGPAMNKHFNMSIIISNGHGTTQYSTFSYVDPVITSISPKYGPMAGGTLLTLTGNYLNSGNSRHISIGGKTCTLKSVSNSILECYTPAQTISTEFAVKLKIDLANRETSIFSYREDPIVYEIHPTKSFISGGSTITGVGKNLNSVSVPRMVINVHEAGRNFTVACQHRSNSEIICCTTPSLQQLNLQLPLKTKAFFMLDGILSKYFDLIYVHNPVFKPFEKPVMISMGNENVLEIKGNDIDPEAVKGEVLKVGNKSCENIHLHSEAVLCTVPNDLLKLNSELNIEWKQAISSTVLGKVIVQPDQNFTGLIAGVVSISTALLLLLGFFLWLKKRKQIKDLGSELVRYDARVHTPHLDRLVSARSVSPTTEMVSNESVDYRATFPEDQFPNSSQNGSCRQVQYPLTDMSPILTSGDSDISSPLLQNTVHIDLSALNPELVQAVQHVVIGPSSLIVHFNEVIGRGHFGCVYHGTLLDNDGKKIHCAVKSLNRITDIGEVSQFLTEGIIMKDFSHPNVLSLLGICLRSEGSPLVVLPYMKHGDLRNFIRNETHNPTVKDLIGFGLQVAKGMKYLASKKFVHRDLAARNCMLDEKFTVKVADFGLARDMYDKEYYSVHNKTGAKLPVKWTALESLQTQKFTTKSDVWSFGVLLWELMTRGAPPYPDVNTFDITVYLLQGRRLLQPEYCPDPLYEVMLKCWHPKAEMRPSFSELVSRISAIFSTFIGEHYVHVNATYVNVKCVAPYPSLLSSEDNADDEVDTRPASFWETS", "procedure,_shortened": "as §1"}, "LATS1": {"target": "T28, LATS1 (Homo sapiens, UniProt O95835)", "T28 construct": "purchased Ambit (DiscoverX) KINOMEscan; Cerep", "procedure,_shortened": "as §1"}, "PIK4Cb": {"target": "T29, PIK4Cb (Homo sapiens, UniProt Q9UBF8)", "T29 construct": "purchased Ambit (DiscoverX) KINOMEscan; Cerep", "procedure,_shortened": "as §1"}, "MYO3a": {"target": "T30, MYO3a (Homo sapiens, UniProt Q8NEV4)", "T30 construct": "purchased Ambit (DiscoverX) KINOMEscan; Cerep", "procedure,_shortened": "as §1"}, "CDK11": {"target": "T31, CDK11 (Homo sapiens, UniProt Q9BWU1)", "T31 construct": "purchased Ambit (DiscoverX) KINOMEscan; Cerep", "procedure,_shortened": "as §1"}}, "data": [{"smiles": "CCCCN1CCN(C(=N)c2cccc(NC(=O)Nc3ccc(S(=O)(=O)NCc4ccc(S(N)(=O)=O)cc4)cc3)c2)CC1", "note": "[SC81458, 4-(3-(3-((4-butylpiperazin-1-yl)(imino)methyl)phenyl)ureido)-N-(4-sulfamoylbenzyl) benzenesulfonamide]", "values": [{"measurement": "remaining binding at 10 µM", "setting": "CDC2L2", "value": 100, "unit": "%"}, {"measurement": "remaining binding at 10 µM", "setting": "FLT3(D835H)", "value": 100, "unit": "%"}, {"measurement": "remaining binding at 10 µM", "setting": "OSR1", "value": 100, "unit": "%"}, {"measurement": "remaining binding at 10 µM", "setting": "FLT3", "value": 100, "unit": "%"}, {"measurement": "remaining binding at 10 µM", "setting": "CDK3", "value": 100, "unit": "%"}, {"measurement": "remaining binding at 10 µM", "setting": "KIT(V559D, T670I)", "value": 85, "unit": "%"}, {"measurement": "remaining binding at 10 µM", "setting": "MAP4K5", "value": 100, "unit": "%"}, {"measurement": "remaining binding at 10 µM", "setting": "EPHB2", "value": 100, "unit": "%"}, {"measurement": "remaining binding at 10 µM", "setting": "MAPKAPK2", "value": 71, "unit": "%"}, {"measurement": "remaining binding at 10 µM", "setting": "[1]", "value": 100, "unit": "%"}, {"measurement": "remaining binding at 10 µM", "setting": "ADCK4", "value": 100, "unit": "%"}, {"measurement": "remaining binding at 10 µM", "setting": "SRMS", "value": 79, "unit": "%"}, {"measurement": "remaining binding at 10 µM", "setting": "MAP3K2", "value": 100, "unit": "%"}, {"measurement": "remaining binding at 10 µM", "setting": "CLK4", "value": 92, "unit": "%"}, {"measurement": "remaining binding at 10 µM", "setting": "PKN2", "value": 67, "unit": "%"}, {"measurement": "remaining binding at 10 µM", "setting": "ABL1(F317L)", "value": 100, "unit": "%"}, {"measurement": "remaining binding at 10 µM", "setting": "PAK3", "value": 93, "unit": "%"}, {"measurement": "remaining binding at 10 µM", "setting": "ABL1(M351T)", "value": 100, "unit": "%"}, {"measurement": "remaining binding at 10 µM", "setting": "CDK9", "value": 100, "unit": "%"}, {"measurement": "remaining binding at 10 µM", "setting": "PIK3CA(E542K)", "value": 100, "unit": "%"}, {"measurement": "remaining binding at 10 µM", "setting": "MELK", "value": 100, "unit": "%"}, {"measurement": "remaining binding at 10 µM", "setting": "[2]", "value": 86, "unit": "%"}, {"measurement": "remaining binding at 10 µM", "setting": "MET(Y1235D)", "value": 100, "unit": "%"}, {"measurement": "remaining binding at 10 µM", "setting": "PAK1", "value": 100, "unit": "%"}, {"measurement": "remaining binding at 10 µM", "setting": "ERK2", "value": 80, "unit": "%"}, {"measurement": "remaining binding at 10 µM", "setting": "YSK4", "value": 100, "unit": "%"}, {"measurement": "remaining binding at 10 µM", "setting": "MET(M1250T)", "value": 100, "unit": "%"}, {"measurement": "remaining binding at 10 µM", "setting": "LATS1", "value": 82, "unit": "%"}, {"measurement": "remaining binding at 10 µM", "setting": "PIK4Cb", "value": 100, "unit": "%"}, {"measurement": "remaining binding at 10 µM", "setting": "MYO3a", "value": 100, "unit": "%"}, {"measurement": "remaining binding at 10 µM", "setting": "CDK11", "value": 91, "unit": "%"}]}]}
